Data reported in PubChem BioAssay AID256 (DTP/NCI, 2004).
Where “and” joins values, the source holds several entries; their conditions need not be identical. Equal entries are not always repeated. Inconclusive results and toxic doses are left out. The calls were made as follows: active = survival T/C of 150% or more; inactive = T/C below 125% in these data.

Test system: CD2F1 mice, L1210 leukemia ip, survival T/C
Test: NCI In Vivo Anticancer Drug Screen. Data for tumor model L1210 Leukemia (intraperitoneal) in CD2F1 (CDF1) mice
Details: higher = longer survival
How it was run: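 Tumor-bearing mice (transplanted tumor) were split into treated and vehicle control groups, and the measured endpoint of each treated group was divided by that of its vehicle controls.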

[1] = endpoint: mean survival time, dose: 100.0 mg/kg/injection, schedule: Q01DX001 (ip), vehicle: saline
[2] = endpoint: mean survival time, dose: 200.0 mg/kg/injection, schedule: Q01DX001 (ip), vehicle: saline
[3] = endpoint: mean survival time, dose: 400.0 mg/kg/injection, schedule: Q01DX001 (ip), vehicle: saline
[4] = endpoint: mean survival time, dose: 100.0 mg/kg/injection, schedule: Q01DX001 (ip), vehicle: saline with Tween-80
[5] = endpoint: mean survival time, dose: 100.0 mg/kg/injection, schedule: Q04DX002 (ip), vehicle: saline with Tween-80
[6] = endpoint: mean survival time, dose: 200.0 mg/kg/injection, schedule: Q01DX001 (ip), vehicle: saline with Tween-80
[7] = endpoint: mean survival time, dose: 200.0 mg/kg/injection, schedule: Q04DX002 (ip), vehicle: saline with Tween-80
[8] = endpoint: mean survival time, dose: 400.0 mg/kg/injection, schedule: Q01DX001 (ip), vehicle: saline with Tween-80
[9] = endpoint: mean survival time, dose: 400.0 mg/kg/injection, schedule: Q04DX002 (ip), vehicle: saline with Tween-80
[10] = endpoint: mean survival time, dose: 100.0 mg/kg/injection, schedule: Q01DX009 (ip), vehicle: saline with Tween-80
[11] = endpoint: mean survival time, dose: 200.0 mg/kg/injection, schedule: Q01DX009 (ip), vehicle: saline with Tween-80
[12] = endpoint: mean survival time, dose: 400.0 mg/kg/injection, schedule: Q01DX009 (ip), vehicle: saline with Tween-80
[13] = endpoint: mean survival time, dose: 100.0 mg/kg/injection, schedule: Q04DX003 (ip), vehicle: saline with Tween-80
[14] = endpoint: mean survival time, dose: 200.0 mg/kg/injection, schedule: Q04DX003 (ip), vehicle: saline with Tween-80
[15] = endpoint: mean survival time, dose: 400.0 mg/kg/injection, schedule: Q04DX003 (ip), vehicle: saline with Tween-80
[16] = endpoint: mean survival time, dose: 50.0 mg/kg/injection, schedule: Q01DX009 (ip), vehicle: Klucel (hydroxypropylcellulose) (HPC)
[17] = endpoint: mean survival time, dose: 100.0 mg/kg/injection, schedule: Q01DX009 (ip), vehicle: Klucel (hydroxypropylcellulose) (HPC)
[18] = endpoint: mean survival time, dose: 200.0 mg/kg/injection, schedule: Q01DX009 (ip), vehicle: Klucel (hydroxypropylcellulose) (HPC)

Measured: T/C

CO[C@@]12[C@@H]3N[C@@H]3CN1C1=C(C(=O)C(Nc3ccc(S)cc3)=C(C)C1=O)[C@@H]2COC(N)=O
inactive: endpoint: mean survival time, dose: 1.5 mg/kg/injection, schedule: Q01DX001 (ip), vehicle: water 108 % of control | endpoint: mean survival time, dose: 3.0 mg/kg/injection, schedule: Q01DX001 (ip), vehicle: water 104 % of control | endpoint: mean survival time, dose: 6.0 mg/kg/injection, schedule: Q01DX001 (ip), vehicle: water 97 % of control | endpoint: mean survival time, dose: 12.0 mg/kg/injection, schedule: Q01DX001 (ip), vehicle: water 98 % of control | endpoint: mean survival time, dose: 16.7 mg/kg/injection, schedule: Q01DX001 (ip), vehicle: distilled water + Tween-80 92 % of control | endpoint: mean survival time, dose: 24.0 mg/kg/injection, schedule: Q01DX001 (ip), vehicle: distilled water + Tween-80 102 % of control | endpoint: mean survival time, dose: 24.0 mg/kg/injection, schedule: Q01DX001 (ip), vehicle: water 98 % of control | endpoint: mean survival time, dose: 34.2 mg/kg/injection, schedule: Q01DX001 (ip), vehicle: distilled water + Tween-80 104 % of control | endpoint: mean survival time, dose: 48.9 mg/kg/injection, schedule: Q01DX001 (ip), vehicle: distilled water + Tween-80 96 % of control

NC(=O)c1ncn(C2OCC(O)C(O)C2O)c1N (stereo not given)
inactive: endpoint: mean survival time, dose: 12.5 mg/kg/injection, schedule: Q01DX005 (ip), vehicle: water 87 % of control and 95 % of control | endpoint: mean survival time, dose: 25.0 mg/kg/injection, schedule: Q01DX005 (ip), vehicle: water 90 % of control and 93 % of control | endpoint: mean survival time, dose: 50.0 mg/kg/injection, schedule: Q01DX005 (ip), vehicle: water 92 % of control | endpoint: mean survival time, dose: 100.0 mg/kg/injection, schedule: Q01DX005 (ip), vehicle: water 98 % of control | endpoint: mean survival time, dose: 200.0 mg/kg/injection, schedule: Q01DX005 (ip), vehicle: water 98 % of control and 95 % of control | endpoint: median survival time, dose: 12.5 mg/kg/injection, schedule: Q01DX005 (ip), vehicle: water 96 % of control | endpoint: median survival time, dose: 25.0 mg/kg/injection, schedule: Q01DX005 (ip), vehicle: water 106 % of control | endpoint: median survival time, dose: 50.0 mg/kg/injection, schedule: Q01DX005 (ip), vehicle: water 102 % of control | endpoint: median survival time, dose: 100.0 mg/kg/injection, schedule: Q01DX005 (ip), vehicle: water 98 % of control | endpoint: median survival time, dose: 200.0 mg/kg/injection, schedule: Q01DX005 (ip), vehicle: water 108 % of control

CCOC(=O)c1cc(-c2ccc(Cl)cc2)nc2c1ccc1ccccc12
inactive: [1] 100 % of control | [2] 96 % of control | [3] 108 % of control

CC1CC(C)(C)N=C(C2(c3ccccc3)CCC2)O1 (stereo not given)
inactive: [4] 101 % of control | [5] 101 % of control | [6] 111 % of control | [7] 93 % of control | [8] 98 % of control | [9] 93 % of control

O=C(CC(=O)c1ccccc1O)c1ccccc1
inactive: [10] 91 % of control | [11] 88 % of control | [12] 94 % of control

CSc1ccc2c(c1)C(N1CCN(C)CC1)Cc1ccccc1S2 (stereo not given)
inactive: endpoint: mean survival time, dose: 1.56 mg/kg/injection, schedule: Q01DX009 (ip), vehicle: saline with Tween-80 112 % of control | endpoint: mean survival time, dose: 3.12 mg/kg/injection, schedule: Q01DX009 (ip), vehicle: saline with Tween-80 118 % of control and 121 % of control | endpoint: mean survival time, dose: 6.25 mg/kg/injection, schedule: Q01DX009 (ip), vehicle: saline with Tween-80 116 % of control and 122 % of control | endpoint: mean survival time, dose: 12.5 mg/kg/injection, schedule: Q01DX009 (ip), vehicle: saline with Tween-80 115 % of control and 120 % of control | endpoint: mean survival time, dose: 25.0 mg/kg/injection, schedule: Q01DX009 (ip), vehicle: saline with Tween-80 122 % of control and 108 % of control | endpoint: mean survival time, dose: 50.0 mg/kg/injection, schedule: Q01DX009 (ip), vehicle: saline with Tween-80 114 % of control

O=C(Nc1ccccc1)Oc1c(Cl)cc(Cl)c2ccccc12
inactive: [5] 88 % of control | [7] 88 % of control | [9] 88 % of control

CSc1ccc(O)c(C)c1
inactive: [13] 104 % of control | [11] 97 % of control | [14] 102 % of control | [15] 104 % of control

O=C(O)C1(NO)CCCCC1
inactive: endpoint: mean survival time, dose: 12.5 mg/kg/injection, schedule: Q01DX009 (ip), vehicle: Klucel (hydroxypropylcellulose) (HPC) 102 % of control | endpoint: mean survival time, dose: 25.0 mg/kg/injection, schedule: Q01DX009 (ip), vehicle: Klucel (hydroxypropylcellulose) (HPC) 101 % of control | [16] 103 % of control | [17] 100 % of control | [18] 97 % of control | endpoint: mean survival time, dose: 400.0 mg/kg/injection, schedule: Q01DX009 (ip), vehicle: Klucel (hydroxypropylcellulose) (HPC) 102 % of control

COC1C(CO)OC(O)C(N)C1OC (stereo not given)
inactive: [1] 103 % of control | [2] 103 % of control | [3] 97 % of control

C=C1C(=O)O[C@@H]2C[C@@]3(C)CCC[C@H](C)C3=C[C@H]12
inactive: endpoint: mean survival time, dose: 100.0 mg/kg/injection, schedule: Q01DX009 (ip), vehicle: saline 98 % of control | endpoint: mean survival time, dose: 200.0 mg/kg/injection, schedule: Q01DX009 (ip), vehicle: saline 101 % of control

CC(=O)N(O)c1ccc2c(c1)Cc1ccccc1-2
inactive: [10] 98 % of control | [11] 101 % of control | [12] 101 % of control

CCOc1ccc(NC2OC(CO)C(O)C(O)C2O)cc1 (stereo not given)
inactive: [1] 100 % of control | [2] 108 % of control

O=[N+]([O-])c1ccccc1NCCNCCNc1ccccc1[N+](=O)[O-]
inactive: [13] 113 % of control | [14] 98 % of control | [15] 98 % of control

O=C(C=C(C(F)(F)F)C(F)(F)F)c1cccc([N+](=O)[O-])c1
inactive: endpoint: mean survival time, dose: 12.5 mg/kg/injection, schedule: Q04DX003 (ip), vehicle: saline with Tween-80 103 % of control | endpoint: mean survival time, dose: 25.0 mg/kg/injection, schedule: Q04DX003 (ip), vehicle: saline with Tween-80 96 % of control

CC1=CC(c2ccccc2)(c2ccccc2)c2ccccc21
inactive: [4] 104 % of control | [6] 91 % of control

O=c1c(Cl)c2cc3c(cc2c2ccccc12)nc1ccccc1n3Cc1ccc([N+](=O)[O-])cc1
inactive: endpoint: mean survival time, dose: 100.0 mg/kg/injection, schedule: Q04DX003 (ip), vehicle: saline 95 % of control | endpoint: mean survival time, dose: 200.0 mg/kg/injection, schedule: Q04DX003 (ip), vehicle: saline 106 % of control | endpoint: mean survival time, dose: 400.0 mg/kg/injection, schedule: Q04DX003 (ip), vehicle: saline 91 % of control

CCOC(=O)C1(Cc2ccccc2)SCCCS1
inactive: endpoint: mean survival time, dose: 50.0 mg/kg/injection, schedule: Q04DX002 (ip), vehicle: saline with Tween-80 105 % of control | [5] 105 % of control | [7] 105 % of control

N#[O+].O=[N+]([O-])O.[Co].[NH2-].[NH2-].[NH2-].[NH2-].[NH2-]
inactive: endpoint: mean survival time, dose: 6.25 mg/kg/injection, schedule: Q04DX002 (ip), vehicle: saline with Tween-80 95 % of control | endpoint: mean survival time, dose: 12.5 mg/kg/injection, schedule: Q04DX002 (ip), vehicle: saline with Tween-80 88 % of control | endpoint: mean survival time, dose: 25.0 mg/kg/injection, schedule: Q04DX002 (ip), vehicle: saline with Tween-80 98 % of control

CCOC(=O)C1(C(=O)OCC)CCC(O)N1C(=O)c1cc2c(cc1[N+](=O)[O-])OCO2 (stereo not given)
inactive: [16] 97 % of control | [17] 101 % of control | [18] 101 % of control

C=CCN(CC=C)/N=N/c1nc[nH]c1C(N)=O
inactive: [13] 98 % of control | [14] 105 % of control | [15] 100 % of control

CNC(=O)Oc1cccc(NC(=O)OCCCCl)c1
inactive: [4] 100 % of control | [6] 105 % of control | [8] 105 % of control
